Legend:
Test in all cases: SelectScreen kinase panel
Assay type in all cases: biochemical
ACVR1B = target: T1, ACVR1B (Homo sapiens, UniProt P36896)
T1 construct: purchased Invitrogen / ThermoFisher SelectScreen
Summary of the method: (§1)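 Using one of three vendor formats (Z′-LYTE, Adapta, LanthaScreen), Invitrogen measured compound effects across its SelectScreen kinase collection. Average inhibition percentages are listed.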

Aurora_A = target: T2, Aurora_A (Homo sapiens, UniProt O14965)
T2 construct: purchased Invitrogen / ThermoFisher SelectScreen
Summary of the method: as §1

Bmx = target: T3, Bmx (Homo sapiens, UniProt P51813)
T3 construct: purchased Invitrogen / ThermoFisher SelectScreen
Summary of the method: as §1

CK1_gamma1 = target: T4, CK1_gamma1 (Homo sapiens, UniProt Q9HCP0)
T4 construct: purchased Invitrogen / ThermoFisher SelectScreen
Summary of the method: as §1

CSF1R = target: T5, CSF1R (Homo sapiens, UniProt P07333)
T5 construct: purchased Invitrogen / ThermoFisher SelectScreen
Summary of the method: as §1

EGFR (T790M,L858R) = target: T6, EGFR (T790M,L858R) (Homo sapiens, UniProt P00533, L858R/T790M)
T6 construct: purchased Invitrogen / ThermoFisher SelectScreen
Summary of the method: as §1

ErbB4 = target: T7, ErbB4 (Homo sapiens, UniProt Q15303)
T7 construct: purchased Invitrogen / ThermoFisher SelectScreen
Summary of the method: as §1

FGFR3 = target: T8, FGFR3 (Homo sapiens, UniProt P22607)
T8 construct: purchased Invitrogen / ThermoFisher SelectScreen
Summary of the method: as §1

Fgr = target: T9, Fgr (Homo sapiens, UniProt P09769)
T9 construct: purchased Invitrogen / ThermoFisher SelectScreen
Summary of the method: as §1

Flt1 = target: T10, Flt1 (Homo sapiens, UniProt P17948)
T10 construct: purchased Invitrogen / ThermoFisher SelectScreen
Summary of the method: as §1

HIPK4 = target: T11, HIPK4 (Homo sapiens, UniProt Q8NE63)
T11 construct: purchased Invitrogen / ThermoFisher SelectScreen
Summary of the method: as §1

IRAK1 = target: T12, IRAK1 (Homo sapiens, UniProt P51617)
T12 construct: purchased Invitrogen / ThermoFisher SelectScreen
Summary of the method: as §1

ITK = target: T13, ITK (Homo sapiens, UniProt Q08881)
T13 construct: purchased Invitrogen / ThermoFisher SelectScreen
Summary of the method: as §1

JAK1 = target: T14, JAK1 (Homo sapiens, UniProt P23458)
T14 construct: purchased Invitrogen / ThermoFisher SelectScreen
Summary of the method: as §1

JAK3 = target: T15, JAK3 (Homo sapiens, UniProt P52333)
T15 construct: purchased Invitrogen / ThermoFisher SelectScreen
Summary of the method: as §1

KDR = target: T16, KDR (Homo sapiens, UniProt P35968)
T16 construct: purchased Invitrogen / ThermoFisher SelectScreen
Summary of the method: as §1

MAP4K4 = target: T17, MAP4K4 (Homo sapiens, UniProt O95819)
T17 construct: purchased Invitrogen / ThermoFisher SelectScreen
Summary of the method: as §1

MST1 = target: T18, MST1 (Homo sapiens, UniProt Q13043)
T18 construct: purchased Invitrogen / ThermoFisher SelectScreen
Summary of the method: as §1

MST2 = target: T19, MST2 (Homo sapiens, UniProt Q13188)
T19 construct: purchased Invitrogen / ThermoFisher SelectScreen
Summary of the method: as §1

Met = target: T20, Met (Homo sapiens, UniProt P08581)
T20 construct: purchased Invitrogen / ThermoFisher SelectScreen
Summary of the method: as §1

PAK3 = target: T21, PAK3 (Homo sapiens, UniProt O75914)
T21 construct: purchased Invitrogen / ThermoFisher SelectScreen
Summary of the method: as §1

PKA = target: T22, PKA (Homo sapiens, UniProt P17612)
T22 construct: purchased Invitrogen / ThermoFisher SelectScreen
Summary of the method: as §1

PKC_alpha = target: T23, PKC_alpha (Homo sapiens, UniProt P17252)
T23 construct: purchased Invitrogen / ThermoFisher SelectScreen
Summary of the method: as §1

PKD2 = target: T24, PKD2 (Homo sapiens, UniProt Q9BZL6)
T24 construct: purchased Invitrogen / ThermoFisher SelectScreen
Summary of the method: as §1

PKG1_alpha = target: T25, PKG1_alpha (Homo sapiens, UniProt Q13976)
T25 construct: purchased Invitrogen / ThermoFisher SelectScreen
Summary of the method: as §1

PLK2 = target: T26, PLK2 (Homo sapiens, UniProt Q9NYY3)
T26 construct: purchased Invitrogen / ThermoFisher SelectScreen
Summary of the method: as §1

PLK3 = target: T27, PLK3 (Homo sapiens, UniProt Q9H4B4)
T27 construct: purchased Invitrogen / ThermoFisher SelectScreen
Summary of the method: as §1

SIK2 = target: T28, SIK2 (Homo sapiens, UniProt Q9H0K1)
T28 construct: purchased Invitrogen / ThermoFisher SelectScreen
Summary of the method: as §1

SRPK1 = target: T29, SRPK1 (Homo sapiens, UniProt Q96SB4)
T29 construct: purchased Invitrogen / ThermoFisher SelectScreen
Summary of the method: as §1

Src = target: T30, Src (Homo sapiens, UniProt P12931)
T30 construct: purchased Invitrogen / ThermoFisher SelectScreen
Summary of the method: as §1

TAO1 = target: T31, TAO1 (Homo sapiens, UniProt Q9UL54)
T31 construct: purchased Invitrogen / ThermoFisher SelectScreen
Summary of the method: as §1

TXK = target: T32, TXK (Homo sapiens, UniProt P42681)
T32 construct: purchased Invitrogen / ThermoFisher SelectScreen
Summary of the method: as §1

ZIPK = target: T33, ZIPK (Homo sapiens, UniProt O43293)
T33 construct: purchased Invitrogen / ThermoFisher SelectScreen
Summary of the method: as §1

T5 sequence (P07333 20-972): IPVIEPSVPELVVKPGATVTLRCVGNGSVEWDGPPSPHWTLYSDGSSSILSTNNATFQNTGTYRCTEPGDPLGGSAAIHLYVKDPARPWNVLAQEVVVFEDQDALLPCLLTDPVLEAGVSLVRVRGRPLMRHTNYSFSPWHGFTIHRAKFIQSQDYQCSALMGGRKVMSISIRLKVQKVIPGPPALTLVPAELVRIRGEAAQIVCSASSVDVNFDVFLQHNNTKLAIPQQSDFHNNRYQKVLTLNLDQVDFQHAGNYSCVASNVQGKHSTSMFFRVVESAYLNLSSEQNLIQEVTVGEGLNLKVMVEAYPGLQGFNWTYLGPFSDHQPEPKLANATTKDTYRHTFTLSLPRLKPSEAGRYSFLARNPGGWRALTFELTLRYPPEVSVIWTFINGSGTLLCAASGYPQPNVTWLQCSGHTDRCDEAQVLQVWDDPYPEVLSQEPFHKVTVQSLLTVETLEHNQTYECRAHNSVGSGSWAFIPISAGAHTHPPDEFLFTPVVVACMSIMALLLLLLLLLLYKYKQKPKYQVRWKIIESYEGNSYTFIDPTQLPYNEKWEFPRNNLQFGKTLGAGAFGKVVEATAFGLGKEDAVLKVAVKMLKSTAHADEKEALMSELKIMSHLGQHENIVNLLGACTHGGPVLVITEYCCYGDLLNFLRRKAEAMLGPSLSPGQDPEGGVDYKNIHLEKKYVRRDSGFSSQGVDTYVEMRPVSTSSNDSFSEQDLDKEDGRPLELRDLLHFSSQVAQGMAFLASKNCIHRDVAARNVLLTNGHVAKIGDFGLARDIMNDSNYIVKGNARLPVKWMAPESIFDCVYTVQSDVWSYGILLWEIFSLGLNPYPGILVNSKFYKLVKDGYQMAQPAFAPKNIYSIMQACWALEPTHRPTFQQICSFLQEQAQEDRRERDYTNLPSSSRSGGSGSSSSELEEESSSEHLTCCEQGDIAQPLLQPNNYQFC
T26 sequence (Q9NYY3 whole entry): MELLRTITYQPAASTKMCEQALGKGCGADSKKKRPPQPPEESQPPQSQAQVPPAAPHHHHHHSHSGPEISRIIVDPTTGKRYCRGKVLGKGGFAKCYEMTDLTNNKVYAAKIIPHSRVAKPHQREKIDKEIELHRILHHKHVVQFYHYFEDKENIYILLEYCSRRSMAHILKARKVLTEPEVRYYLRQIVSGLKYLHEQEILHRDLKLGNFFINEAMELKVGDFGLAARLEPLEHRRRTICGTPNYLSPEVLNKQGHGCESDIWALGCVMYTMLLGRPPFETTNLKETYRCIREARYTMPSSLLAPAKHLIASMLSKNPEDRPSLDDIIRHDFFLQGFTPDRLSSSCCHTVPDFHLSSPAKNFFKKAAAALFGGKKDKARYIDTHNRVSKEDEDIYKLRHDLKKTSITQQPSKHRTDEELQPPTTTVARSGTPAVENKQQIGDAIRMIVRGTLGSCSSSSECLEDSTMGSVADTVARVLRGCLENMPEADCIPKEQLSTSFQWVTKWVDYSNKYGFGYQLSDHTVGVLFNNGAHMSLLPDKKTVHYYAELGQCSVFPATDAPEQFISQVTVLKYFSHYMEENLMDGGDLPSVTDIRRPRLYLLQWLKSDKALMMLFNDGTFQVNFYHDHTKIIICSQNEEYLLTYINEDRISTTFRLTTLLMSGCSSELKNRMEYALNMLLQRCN
T20 sequence (P08581 25-1390): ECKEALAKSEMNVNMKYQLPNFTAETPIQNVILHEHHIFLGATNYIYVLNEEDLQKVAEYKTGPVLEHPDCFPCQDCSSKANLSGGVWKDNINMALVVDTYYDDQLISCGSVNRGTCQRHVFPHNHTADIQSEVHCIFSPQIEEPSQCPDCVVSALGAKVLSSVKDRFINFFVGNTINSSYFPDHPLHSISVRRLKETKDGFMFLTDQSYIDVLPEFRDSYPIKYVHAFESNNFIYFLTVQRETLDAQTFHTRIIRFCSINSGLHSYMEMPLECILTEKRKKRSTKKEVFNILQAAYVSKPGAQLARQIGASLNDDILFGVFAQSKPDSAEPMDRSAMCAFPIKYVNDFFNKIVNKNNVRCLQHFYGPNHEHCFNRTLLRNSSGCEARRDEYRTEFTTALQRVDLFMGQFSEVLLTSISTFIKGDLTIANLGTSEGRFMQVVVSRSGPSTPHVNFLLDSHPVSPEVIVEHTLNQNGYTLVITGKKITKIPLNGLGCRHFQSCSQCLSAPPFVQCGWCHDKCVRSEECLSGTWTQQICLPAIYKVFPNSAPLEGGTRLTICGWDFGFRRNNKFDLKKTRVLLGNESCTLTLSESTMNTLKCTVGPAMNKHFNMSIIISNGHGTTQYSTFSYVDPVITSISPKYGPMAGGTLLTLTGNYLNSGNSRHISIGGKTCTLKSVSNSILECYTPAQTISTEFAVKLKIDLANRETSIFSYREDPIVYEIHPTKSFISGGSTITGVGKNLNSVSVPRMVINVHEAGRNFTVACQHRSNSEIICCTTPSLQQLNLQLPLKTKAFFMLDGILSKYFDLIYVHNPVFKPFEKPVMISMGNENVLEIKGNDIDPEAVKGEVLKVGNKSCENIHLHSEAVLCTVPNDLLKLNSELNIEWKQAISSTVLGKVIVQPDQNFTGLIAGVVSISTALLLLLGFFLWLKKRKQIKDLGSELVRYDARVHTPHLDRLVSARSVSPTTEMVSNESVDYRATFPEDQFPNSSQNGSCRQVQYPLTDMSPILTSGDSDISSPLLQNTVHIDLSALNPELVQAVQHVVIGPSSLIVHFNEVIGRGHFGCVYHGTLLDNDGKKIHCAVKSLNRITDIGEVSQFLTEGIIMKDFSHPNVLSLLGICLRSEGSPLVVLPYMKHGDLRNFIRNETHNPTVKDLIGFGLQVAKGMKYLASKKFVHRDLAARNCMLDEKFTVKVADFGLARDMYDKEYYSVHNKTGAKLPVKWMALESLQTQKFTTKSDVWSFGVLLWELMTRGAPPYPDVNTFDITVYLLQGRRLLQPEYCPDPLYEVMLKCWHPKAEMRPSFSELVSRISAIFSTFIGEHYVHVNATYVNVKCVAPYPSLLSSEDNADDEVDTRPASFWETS
T19 sequence (Q13188 whole entry): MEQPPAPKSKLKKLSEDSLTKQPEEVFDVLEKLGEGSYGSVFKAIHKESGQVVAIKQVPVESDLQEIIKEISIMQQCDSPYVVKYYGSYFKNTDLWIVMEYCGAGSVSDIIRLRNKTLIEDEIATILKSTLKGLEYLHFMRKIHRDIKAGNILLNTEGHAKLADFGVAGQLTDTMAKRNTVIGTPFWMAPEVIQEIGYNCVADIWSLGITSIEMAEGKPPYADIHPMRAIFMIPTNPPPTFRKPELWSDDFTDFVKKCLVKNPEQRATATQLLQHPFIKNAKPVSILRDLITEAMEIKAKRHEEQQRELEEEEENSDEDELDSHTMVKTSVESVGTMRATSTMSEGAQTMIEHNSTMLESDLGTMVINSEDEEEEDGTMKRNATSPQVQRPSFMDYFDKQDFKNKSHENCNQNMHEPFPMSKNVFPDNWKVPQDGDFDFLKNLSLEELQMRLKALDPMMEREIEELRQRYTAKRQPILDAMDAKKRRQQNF
T30 sequence (P12931 whole entry): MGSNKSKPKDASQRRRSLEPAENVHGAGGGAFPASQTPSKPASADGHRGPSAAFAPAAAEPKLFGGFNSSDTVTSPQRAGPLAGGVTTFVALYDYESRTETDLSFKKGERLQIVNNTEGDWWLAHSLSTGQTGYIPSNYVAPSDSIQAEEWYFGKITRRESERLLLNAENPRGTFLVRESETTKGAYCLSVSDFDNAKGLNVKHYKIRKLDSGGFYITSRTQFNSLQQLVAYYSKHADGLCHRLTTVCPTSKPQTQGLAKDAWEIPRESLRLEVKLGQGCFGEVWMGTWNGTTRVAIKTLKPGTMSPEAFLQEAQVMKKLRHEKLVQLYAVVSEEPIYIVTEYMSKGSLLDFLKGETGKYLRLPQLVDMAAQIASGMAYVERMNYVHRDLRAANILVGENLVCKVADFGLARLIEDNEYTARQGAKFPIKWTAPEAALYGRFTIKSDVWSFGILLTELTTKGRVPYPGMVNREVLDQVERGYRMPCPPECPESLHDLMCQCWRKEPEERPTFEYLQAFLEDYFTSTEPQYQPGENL
T1 sequence (P36896 24-505): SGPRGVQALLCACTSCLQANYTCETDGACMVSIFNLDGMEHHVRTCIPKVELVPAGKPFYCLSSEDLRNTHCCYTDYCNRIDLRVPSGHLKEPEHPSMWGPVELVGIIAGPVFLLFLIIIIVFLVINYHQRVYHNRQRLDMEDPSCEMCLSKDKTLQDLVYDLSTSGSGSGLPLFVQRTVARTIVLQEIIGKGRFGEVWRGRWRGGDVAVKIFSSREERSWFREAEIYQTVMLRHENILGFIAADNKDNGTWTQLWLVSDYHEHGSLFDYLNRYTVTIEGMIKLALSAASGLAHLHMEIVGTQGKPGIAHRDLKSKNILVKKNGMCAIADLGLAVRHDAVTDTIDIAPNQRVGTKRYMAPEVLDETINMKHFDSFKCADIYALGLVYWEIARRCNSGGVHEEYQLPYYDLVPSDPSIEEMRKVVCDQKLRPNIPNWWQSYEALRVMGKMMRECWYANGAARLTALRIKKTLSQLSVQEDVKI
T21 sequence (O75914 whole entry): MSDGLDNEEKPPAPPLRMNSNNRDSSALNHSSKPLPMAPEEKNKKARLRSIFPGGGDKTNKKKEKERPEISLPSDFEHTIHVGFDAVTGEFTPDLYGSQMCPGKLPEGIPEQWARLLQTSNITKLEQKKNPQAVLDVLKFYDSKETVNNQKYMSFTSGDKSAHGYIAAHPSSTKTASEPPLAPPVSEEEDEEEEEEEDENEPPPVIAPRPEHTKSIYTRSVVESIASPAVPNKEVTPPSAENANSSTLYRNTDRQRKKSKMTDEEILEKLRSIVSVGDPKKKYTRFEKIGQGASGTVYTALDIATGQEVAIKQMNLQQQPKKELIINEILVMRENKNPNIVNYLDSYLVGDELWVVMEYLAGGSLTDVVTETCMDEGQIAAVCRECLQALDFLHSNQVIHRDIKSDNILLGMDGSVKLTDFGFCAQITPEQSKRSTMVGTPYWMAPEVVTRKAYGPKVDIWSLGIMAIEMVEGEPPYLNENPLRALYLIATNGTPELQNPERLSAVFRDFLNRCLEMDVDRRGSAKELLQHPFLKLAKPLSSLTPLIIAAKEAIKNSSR

COc1cc(C(N)=O)nc(-c2cccc(C#C[C@]3(O)CCN(C)C3=O)c2)c1 [NIK SMI1]
inhibition at 1 µM (ACVR1B): 2% | inhibition at 1 µM (Aurora_A): 1% | inhibition at 1 µM (Bmx): -5% | inhibition at 1 µM (CK1_gamma1): 2.5% | inhibition at 1 µM (CSF1R): -11% | inhibition at 1 µM (EGFR (T790M,L858R)): 9.5% | inhibition at 1 µM (ErbB4): 7% | inhibition at 1 µM (FGFR3): -3.5% | inhibition at 1 µM (Fgr): 8% | inhibition at 1 µM (Flt1): 7% | inhibition at 1 µM (HIPK4): 3% | inhibition at 1 µM (IRAK1): 1.8% | inhibition at 1 µM (ITK): -3% | inhibition at 1 µM (JAK1): -7% | inhibition at 1 µM (JAK3): 15% | inhibition at 1 µM (KDR): -1.5% | inhibition at 1 µM (MAP4K4): 45.5% | inhibition at 1 µM (MST1): 11.5% | inhibition at 1 µM (MST2): 28% | inhibition at 1 µM (Met): 0% | inhibition at 1 µM (PAK3): -3.5% | inhibition at 1 µM (PKA): -3% | inhibition at 1 µM (PKC_alpha): 4.5% | inhibition at 1 µM (PKD2): 0% | inhibition at 1 µM (PKG1_alpha): 14.5% | inhibition at 1 µM (PLK2): 4% | inhibition at 1 µM (PLK3): 9% | inhibition at 1 µM (SIK2): 5.5% | inhibition at 1 µM (SRPK1): 8.5% | inhibition at 1 µM (Src): -1.5% | inhibition at 1 µM (TAO1): 17% | inhibition at 1 µM (TXK): 4.5% | inhibition at 1 µM (ZIPK): -5.5%
